From patent US7456154B2 (priority 2001, dated 2008)
Several values for one entry are separate records, joined by “and”; a condition that tells them apart may be missing. Identical values can stand only once.

What was measured:
AChE-S = AChE-S expression in mandibular lymph nodes of Crl:CD rats; type: in vivo, rat; settings: 0.50 μg/g/day, 7 days; rEN101 oral or i.v., hEN101 i.v.
AChE-R mRNA = AChE-R mRNA in mandibular lymph nodes of Crl:CD rats; type: in vivo, rat; settings: 0.50 μg/g/day, 7 days; rEN101 oral or i.v., hEN101 i.v.; vs saline
Method: A study of the potential efficacy as well as toxicity of hEN101 was conducted on 4 week-old Crl:CD rats. To groups of 12 animals (6 males, 6 females) were administered 0.0 (saline only), 0.50 or 2.50 μg/g/day of hEN101 by oral gavage (o.g.), 0.50 μg/g/day of rEN101 by o.g., or 0.50 μg/g/day of rEN101 or hEN101 by i.v. injection. Additionally, there was a control group that was not injected. For 7 days the animals were checked for gross signs of toxicity: mortality, body weight, food consumption, ophtalmology, hematology (peripheral blood), and blood chemistry. At 7 days they were sacrificed and examined post mortem for macroscopic pathology and organ weight. Fixed sections of brain (cerebellum, cerebrum, midbrain, medulla), heart (auricular and ventricular regions), kidneys (cortex, medulla, papilla regions), liver (all main lobes), lungs (two major lobes, including bronchi), lymph nodes (mandibular and mesenteric), spinal cord (transverse and longitudinal sections at cervical, lumbar and thoracic levels), caecum, colon, duodenum, ileum, jejunum, esophagus, rectum, spleen and stomach (keratinized, glandular and antrum) were stained with hematoxylin/eosin to reveal necrosis or cell death.
Mandibular lymph nodes were examined for the effect of EN101 on AChE-R mRNA. […]

EAMG rats = assay: Treadmill running time and clinical status of EAMG rats; type: in vivo, rat; settings: for Treadmill Performance Time: individual EAMG rat; for Clinical score: individual rat
AChE-R [1] = assay: Immunohistochemical staining of AChE-R in rat muscle; type: in vivo; settings: healthy and EAMG rats, 24 h after single i.v. injection of 250 μg/Kg
Method: Immunocytochemistry: Muscle sections were deparaffinized with xylene and were re-hydrated in graded ethanol solutions (100%, 90%, 70%) and PBS. Heat-induced antigen retrieval was performed by microwave treatment (850 W for rapid boil following 10 min in reduced intensity) in 500 ml of 0.01M citrate buffer pH 6.0. Slides were cooled to room temperature and rinsed in double distilled water. Non-specific binding was blocked by 4% nominal donkey serum in PBS with 0.3% Triton X-100 and 0.05% Tween 20 (1 hr at room temperature). Biotinylated primary antibody was diluted (1:100 and 1:30 for rabbit anti-AChE-R [Sternfeld et al. (2000) id ibid] and goat anti-nAChR, respectively) in the same buffer and slides were incubated 1 hr at room temperature following overnight incubation at 4° C. Sections were rinsed and incubated with alkaline phosphatase-conjugated secondary antibody, diluted in the same blocking buffer 1 hr at room temperature and then overnight at 4° C. Detection was with the alkaline phosphatase substrate Fast Red (Roche Diagnostics, Mannheim, Germany). Slides were simultaneously transferred to a stop solution (25 mM EDTA, 0.05% Triton X-100, 1 mM levamisole in PBS, pH 7.2), rinsed in PBS and cover-slipped with Immunomount (Shandon). […]

AChE-R [2] = assay: Immunoblot densitometry of serum AChE-R in EAMG rats; type: in vivo, rat; settings: 24 h after single i.v. injection of 250 μg/Kg
Method: Serum analyses: Blood samples drawn from EAMG rats and MG patients were subjected to non-denaturing gel electrophoresis as described [Kaufer et al. (1998) id ibid], as well as to catalytic activity measurements of AChE [Shapira et al. (2000) id ibid]. Iso-OMPA (tetraisopropylpyrophosphoramide, […]), was used to block butyrylcholinesterase activity in the serum samples. For activity staining on polyacrylamide gels [Kaufer et al. (1998) id ibid] we used 5-10−6 M iso-OMPA.
To evaluate the physiological outcome of this suppression, compound muscle action potentials (CMAPs) from the gastrocnemius muscle were recorded. […] The baseline decline, the percent difference in the heights of the fifth and the first evoked potentials, ranged from 10% to 36% (mean±SEM=13.0±2.5%, FIG. 9B, inset) as compared to 4.0±0.9% among healthy rats. The standard therapy for MG patients is administration of anti-cholinesterases, which elevate ACh levels to a threshold that enables receptor activation. Accordingly, neostigmine bromide (Prostigmine™, 75 μg/kg) was administered via i.p. This rapidly and effectively corrected the CMAP decline in EAMG rats, from 87.6% of the first evoked potential in untreated animals to […] of this level (i.e. 107.4%) of the first evoked potential). […]

Substance	Expression of AChE-S synaptic variant in mandibular lymph nodes (AChE-S)	AChE-R mRNA levels in mandibular lymph nodes (AChE-R mRNA)	Effect on muscle stamina in EAMG rats (EAMG rats; 0.25 μg/g oral single dose)	Treadmill Performance Time (EAMG rats; 5 h, 0.25 μg/g oral single dose)	Treadmill Performance Time (EAMG rats; 24 h, 0.25 μg/g oral single dose)	Clinical score (EAMG rats; 24 h, scale 0 to 5 (death), 0.25 μg/g oral single dose)	Treadmill Performance Time (EAMG rats; 48 h, 0.25 μg/g oral single dose)	Clinical score (EAMG rats; 48 h, scale 0 to 5 (death), 0.25 μg/g oral single dose)	Treadmill Performance Time (EAMG rats; before (basal), 0.25 μg/g oral single dose)	Clinical score (EAMG rats; before (basal), scale 0 (no weakness) to 5 (death))	AChE-R immunohistochemical staining in muscle (AChE-R [1])	Serum AChE-R level (AChE-R [2])	Treadmill running time after treatment (EAMG rats; EAMG disease grade 2, 250 μg/Kg i.v., 24 h)	Treadmill running time before treatment (EAMG rats; EAMG disease grade 2, 25 m/min)	Treadmill running time after treatment (EAMG rats; EAMG disease grade 3, 250 μg/Kg i.v., 24 h)	Treadmill running time before treatment (EAMG rats; EAMG disease grade 3, 25 m/min)	Treadmill running time after treatment (EAMG rats; EAMG disease grade 4, 250 μg/Kg i.v., 24 h)	Treadmill running time before treatment (EAMG rats; EAMG disease grade 4, 25 m/min)
5′-CTGCCACGTTCTCCTGCACC-3′ [hEN101]	did not affect the expression	inconsistent in depressing AChE-R mRNA levels	promoted muscle stamina	300 s and 120 s and 150 s and 70 s	345 s and 170 s and 380 s and 360 s and 30 s	(1) (3×) and (2) and |||| (3) and (3)	85 s and 290 s	2.5 and 2 and || (5)	210 s and 80 s and 180 s and 30 s and 110 s and 0 s	(2.5) (2×) and 3 and (3.5) and (3) and 3.5								
5′-CTGCGATATTTTCTTGTACC-3′ (chemistry not given here) [rEN101]	did not affect the expression	inconsistent in depressing AChE-R mRNA levels									significantly reduced	reducing its serum level	488 ± 58 s	247 ± 35 s	500 ± 193 s	179 ± 21 s	212 ± 59 s	32 ± 6 s
